Data as given in patent publication US9217157B2, “Recombinant influenza viruses and uses thereof” (Icahn School of Medicine at Mount Sinai, priority 2009, dated 2015).

Assays:
NS1-GFP virus [1] = test system: NS1-GFP virus; set-up: species or system influenza A virus; conditions: in vivo
NS1-GFP virus [2] = assay type: in vivo, influenza A virus

SMILES | effect on NS1-GFP infection in different cell types, in words (NS1-GFP virus [1]) | prevention of infection in B and NK cells (NS1-GFP virus [1]) | reduction in infection of CD11b+ CD11c+ cells (NS1-GFP virus [1]) [%] | reduction in infection of epithelial (CD45-) cells (NS1-GFP virus [1]) [%] | number of infiltrating cells (inflammatory monocytes and neutrophils), in words (NS1-GFP virus [1]) | GFP fluorescence intensity of lungs lower than in untreated mice (NS1-GFP virus [2]; day 2 post-infection, 10^6 pfu, 50 mg/Kg once daily from day of infection) [fold] | spread of GFP signal in lungs, in words (NS1-GFP virus [2]; day 4 post infection, treatment from day of infection) | GFP fluorescence signal in lungs vs no treatment, in words (NS1-GFP virus [2]; day 4 post infection, treatment started two days after infection (day+2))
NC12CC3CC(CC(C3)C1)C2 [amantadine] | most effective in blocking infection of NK and B cells, but was less potent for other cell types | 3-4 fold | 50 | 50 | – | – | – | –
CCOC(=O)C1=C[C@@H](OC(CC)CC)[C@H](NC(C)=O)[C@@H](N)C1 [oseltamivir] | dramatically reduced infection rate in all of the examined cell types | – | – | – | dramatically lower than in amantadine treated mice | 3 to 5 | significantly restricted the spread of viral infection | no significant difference
